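A five-concentration, 48-hour dose response in 96-well plates underlies each endpoint, interpolated linearly between surrounding concentrations. GI50: concentration for 50% inhibition of growth.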 Active and inactive are the calls of the source. Cut-off read from the data, not from the text of the source: active = GI50 up to about 1.1 µM and inactive = higher.

Some test systems named below: OVCAR-3; SF-295; SN12C; HT-29; UO-31; BT-549; HOP-92; KM12; MDA-N; K562; U-251; OVCAR-4; 786-0; CCRF-CEM; COLO 205; T47D; TK-10; HOP-62; EKVX.
Holding throughout (test): DTP human tumour cell line panel, 48 h

A word on the GI50: it is the concentration that inhibits growth by half. Take `CC1(O)/C(=N/O)CC2CC1C2(C)C` (stereo not given): the GI50 in the experiment on OVCAR-3, in the experiment on SF-295, with SN12C, with HT-29, with UO-31 and in the experiment on BT-549 was > 100 µM (inactive) each time. In addition, the GI50 with HOP-92, with KM12, with MDA-N, in the experiment with K562, in the experiment on U-251 and in the experiment on OVCAR-4 was > 100 µM (inactive) in each case. In addition, the GI50 in the experiment with 786-0, in the experiment on CCRF-CEM, in the experiment on COLO 205, in the experiment with T47D and in the experiment with TK-10 was > 100 µM (inactive) throughout.
Turning to `Cc1ccc(CS(=O)(=O)C/N=C2\Sc3ccccc3N\C2=C/C(=O)c2ccc(Cl)cc2)cc1`, the GI50 in the experiment on OVCAR-3, in the experiment with SF-295, in the experiment with SN12C, with HT-29, in the experiment with BT-549 and in the experiment on HOP-92 was > 10 µM (inactive) each time. Besides, the GI50 with KM12 was > 10 µM (inactive); in the experiment on MDA-N, > 10 µM (inactive); in the experiment on K562, > 10 µM (inactive); in the experiment on U-251 it was > 10 µM (inactive); in the experiment on HOP-62 it was 8.22 µM (inactive); in the experiment on OVCAR-4, 5.47 µM (inactive). Also, the GI50 was > 10 µM (inactive) in the experiment with 786-0; 1 µM (active) in the experiment with CCRF-CEM; > 10 µM (inactive) in the experiment with COLO 205; 1.71 µM (inactive) in the experiment with T47D; > 10 µM (inactive) with TK-10.
On to `Cc1cc(C)n(CN(Cn2nc(C)cc2C)C2CCCCC2)n1`, for which the GI50 in the experiment on OVCAR-3 was 25.9 µM (inactive); with SF-295 it was 94 µM (inactive); in the experiment on SN12C it was 27.5 µM (inactive); in the experiment on EKVX, 31.8 µM (inactive); in the experiment on HT-29, 21.1 µM (inactive); in the experiment with UO-31 it was 20.8 µM (inactive). For the same molecule, the GI50 was 23.3 µM (inactive) with BT-549; 28.8 µM (inactive) in the experiment with HOP-92; 21.2 µM (inactive) in the experiment on KM12; 19 µM (inactive) in the experiment with MDA-N; 32.1 µM (inactive) with U-251; 31.3 µM (inactive) with HOP-62. Further, the GI50 is 24.2 µM (inactive) in the experiment on OVCAR-4; 23.1 µM (inactive) in the experiment with 786-0; 19 µM (inactive) in the experiment with CCRF-CEM; 18.1 µM (inactive) in the experiment with COLO 205; 28.2 µM (inactive) in the experiment with T47D; 44.4 µM (inactive) in the experiment on TK-10.
`Cc1ccc(S(N)(=O)=O)cc1` [P-TOLUENESULFONAMIDE]: the GI50 in the experiment with OVCAR-3, with SF-295, in the experiment on SN12C, in the experiment on EKVX, with HT-29 and in the experiment on UO-31 was > 1000 µM (inactive) throughout. Further, the GI50 in the experiment on BT-549 is 977 µM (inactive); in the experiment on HOP-92, 558 µM (inactive); in the experiment with KM12 it was > 1000 µM (inactive); with MDA-N, > 1000 µM (inactive); with K562, > 1000 µM (inactive); in the experiment on U-251, > 1000 µM (inactive). The GI50 with HOP-62, in the experiment on 786-0, in the experiment on CCRF-CEM, in the experiment with COLO 205, in the experiment on T47D and in the experiment on TK-10 was > 1000 µM (inactive) in each case.

The values above are taken from ChEMBL document CHEMBL1201862, “PubChem BioAssay data set” (2004).
